Results reported in patent US11866431B2, “Bicyclic compounds” (Vivace Therapeutics, Inc., priority 2018, dated 2024).

Test system: 8XTBD luciferase reporter (YAP reporter) in HEK293T cells
Assay: YAP Reporter Assay
Format: cell-based
Settings: Homo sapiens, HEK-293T; HEK293T cells stably transfected with 8XTBD luciferase reporter and pRLTK; 24-hr incubation; top concentration 3 μM; read-out: Firefly Luciferase IC50
In short: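 Dual-luciferase read-out after 24 h compound exposure at 37° C, 5% CO2; IC50 and maximum inhibition given separately for 8XTBD-firefly and TK-renilla signals. Stable HEK293T reporter cells, 3×10^3/well, received 10-point 1:3 series starting 3 μM final, in quadruplicate.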

SMILES	IC50
C[C@@H](NC(=O)c1cnc2c(-c3ccc(C(F)(F)F)cc3)cccc2c1)C1(O)CNC1 [Compound 141, (R)—N-(1-(3-hydroxyazetidin-3-yl)ethyl)-8-(4-(trifluoromethyl)phenyl)quinoline-3-carboxamide]	1 to 3 µM
CC(C)N1CC([C@H](C)NC(=O)c2ccc3c(-c4ccc(C(F)(F)F)cc4)cccc3c2)C1 [Compound 143, N-[(1S)-1-(1-isopropylazetidin-3-yl)ethyl]-5-[4-(trifluoromethyl)phenyl]naphthalene-2-carboxamide]	1 to 3 µM
C[C@@H](NC(=O)c1ccc2c(-c3ccc(C(F)(F)F)cc3)cccc2c1)C1CN(CCF)C1 [Compound 144, (R)—N-(1-(1-(2-fluoroethyl)azetidin-3-yl)ethyl)-5-(4-(trifluoromethyl)phenyl)-2-naphthamide]	0.1 to 1 µM
CCN1CC([C@@H](C)NC(=O)c2ccc3c(-c4ccc(C(F)(F)F)cc4)cccc3c2)C1 [Compound 148, N-[(1R)-1-(1-Ethylazetidin-3-yl)ethyl]-5-[4-(trifluoromethyl)phenyl]naphthalene-2-carboxamide]	0.1 to 1 µM
CCN1CC([C@H](C)NC(=O)c2ccc3c(-c4ccc(C(F)(F)F)cc4)cccc3c2)C1 [Compound 149, N-[(1S)-1-(1-Ethylazetidin-3-yl)ethyl]-5-[4-(trifluoromethyl)phenyl]naphthalene-2-carboxamide]	0.1 to 1 µM
CCN1CC([C@@H](C)NC(=O)c2cnc3c(-c4ccc(C(F)(F)F)cc4)cccc3c2)C1 [Compound 150, N-[(1R)-1-(1-Ethylazetidin-3-yl)ethyl]-8-[4-(trifluoromethyl)phenyl]quinoline-3-carboxamide]	1 to 3 µM
C[C@@H](NC(=O)c1ccc2c(-c3ccc(C(F)(F)F)cc3)cccc2c1)C1CN(C)C1 [Compound 153, N-[(1R)-1-(1-methylazetidin-3-yl)ethyl]-5-[4-(trifluoromethyl)phenyl]naphthalene-2-carboxamide]	0.1 to 1 µM
C[C@H](NC(=O)c1ccc2c(-c3ccc(C(F)(F)F)cc3)cccc2c1)C1(O)CNC1 [Compound 155, (S)—N-(1-(3-hydroxyazetidin-3-yl)ethyl)-5-(4-(trifluoromethyl)phenyl)-2-naphthamide]	0.1 to 1 µM
C[C@@H](NC(=O)c1cnc2c(-c3ccc(C(F)(F)F)cc3)cccc2c1)C1CN(C)C1 [Compound 156, N-[(1R)-1-(1-methylazetidin-3-yl)ethyl]-8-[4-(trifluoromethyl)phenyl]quinoline-3-carboxamide]	0.1 to 1 µM
C[C@@H](NC(=O)c1cnc2c(-c3ccc(C(F)(F)F)cc3)cccc2c1)C1CNC1 [Compound 158, N-[(1R)-1-(Azetidin-3-yl)ethyl]-8-[4-(trifluoromethyl)phenyl]quinoline-3-carboxamide]	0.1 to 1 µM
O=C(NC(CCO)CCO)c1cnc2c(-c3ccc(C(F)(F)F)cc3)cccc2c1 [Compound 160, N-(1,5-dihydroxypentan-3-yl)-8-(4-(trifluoromethyl)phenyl)quinoline-3-carboxamide]	1 to 3 µM
O=C(NC(CCO)CCO)c1ccc2c(-c3ccc(C(F)(F)F)cc3)cccc2c1 [Compound 161, N-(1,5-dihydroxypentan-3-yl)-5-(4-(trifluoromethyl)phenyl)-2-naphthamide]	0.1 to 1 µM
O=C(N[C@H](CO)c1ccccn1)c1ccc2c(-c3ccc(C(F)(F)F)cc3)cccc2c1 [Compound 162, N-[(1S)-2-hydroxy-1-(2-pyridyl)ethyl]-5-[4-(trifluoromethyl)phenyl]naphthalene-2-carboxamide]	1 to 3 µM
O=C(N[C@@H](CO)c1ccccn1)c1ccc2c(-c3ccc(C(F)(F)F)cc3)cccc2c1 [Compound 163, N-[(1R)-2-hydroxy-1-(2-pyridyl)ethyl]-5-[4-(trifluoromethyl)phenyl]naphthalene-2-carboxamide]	< 0.1 µM
O=C(N[C@@H](CCO)c1ccccn1)c1ccc2c(-c3ccc(C(F)(F)F)cc3)cccc2c1 [Compound 164, (S)—N-(3-hydroxy-1-(pyridin-2-yl)propyl)-5-(4-(trifluoromethyl)phenyl)-2-naphthamide]	< 0.1 µM
O=C(N[C@H](CCO)c1ccccn1)c1ccc2c(-c3ccc(C(F)(F)F)cc3)cccc2c1 [Compound 165, (R)—N-(3-hydroxy-1-(pyridin-2-yl)propyl)-5-(4-(trifluoromethyl)phenyl)-2-naphthamide]	1 to 3 µM
C[C@@H](CCO)NC(=O)c1ccc2c(-c3ccc(C(F)(F)F)cc3)cccc2c1 [Compound 166, N-[(1S)-3-hydroxy-1-methyl-propyl]-5-[4-(trifluoromethyl)phenyl]naphthalene-2-carboxamide]	< 0.1 µM
C[C@H](CCO)NC(=O)c1ccc2c(-c3ccc(C(F)(F)F)cc3)cccc2c1 [Compound 167, N-[(1R)-3-hydroxy-1-methyl-propyl]-5-[4-(trifluoromethyl)phenyl]naphthalene-2-carboxamide]	< 0.1 µM
C[C@@H](CCN)NC(=O)c1ccc2c(-c3ccc(C(F)(F)F)cc3)cccc2c1 [Compound 168, (S)—N-(4-aminobutan-2-yl)-5-(4-(trifluoromethyl)phenyl)-2-naphthamide]	< 0.1 µM
C[C@H](CCN)NC(=O)c1ccc2c(-c3ccc(C(F)(F)F)cc3)cccc2c1 [Compound 169, (R)—N-(4-aminobutan-2-yl)-5-(4-(trifluoromethyl)phenyl)-2-naphthamide]	0.1 to 1 µM
O=C(NCc1ccnc(CF)n1)c1ccc2c(-c3ccc(C(F)(F)F)cc3)cccc2c1 [Compound 170, N-((2-(fluoromethyl)pyrimidin-4-yl)methyl)-5-(4-(trifluoromethyl)phenyl)-2-naphthamide]	< 0.1 µM
O=C(NCc1ccnc(COc2ccon2)n1)c1ccc2c(-c3ccc(C(F)(F)F)cc3)cccc2c1 [Compound 171, N-((2-((Isoxazol-3-yloxy)methyl)pyrimidin-4-yl)methyl)-5-(4-(trifluoromethyl)phenyl)-2-naphthamide]	0.1 to 1 µM
O=C(NCc1ccnc(COc2c(F)cccc2F)n1)c1ccc2c(-c3ccc(C(F)(F)F)cc3)cccc2c1 [Compound 172, N-((2-((2,6-difluorophenoxy)methyl)pyrimidin-4-yl)methyl)-5-(4-(trifluoromethyl)phenyl)-2-naphthamide]	1 to 3 µM
C[C@@H](NC(=O)c1ccc2c(-c3ccc(C(F)(F)F)cc3)cccc2c1)c1cccc2nc[nH]c12 [Compound 173, N-[(1R)-1-(3H-benzimidazol-4-yl)ethyl]-5-[4-(trifluoromethyl)phenyl]naphthalene-2-carboxamide]	0.1 to 1 µM
C[C@H](NC(=O)c1ccc2c(-c3ccc(C(F)(F)F)cc3)cccc2c1)c1cccc2nc[nH]c12 [Compound 174, N-[(1S)-1-(3H-benzimidazol-4-yl)ethyl]-5-[4-(trifluoromethyl)phenyl]naphthalene-2-carboxamide]	< 0.1 µM
C[C@@H](NC(=O)c1ccc2c(-c3ccc(C(F)(F)F)cc3)cccc2c1)c1cccc2ccsc12 [Compound 176, N-[(1R)-1-(benzothiophen-7-yl)ethyl]-5-[4-(trifluoromethyl)phenyl]naphthalene-2-carboxamide]	0.1 to 1 µM
